Measurements published in patent US6579689B2, “Modulation of γ-secretase activity” (Scios Inc., priority 2000, dated 2003).

System: γ-secretase
Assay: Cell-free 0.5% CHAPS solubilized γ-secretase activity, Aβ production (Aβ40 ELISA)
Type: biochemical, monkey
Details: for enhancement of γ-secretase activity by other phospholipids, compared with cardiolipin: concentration not given
Method: To produce membranes containing high levels of CT99, ˜10^9 CV-1 monkey fibroblast cells were infected with VV99 for 48 hours. After this period, the cells were harvested, washed with saline, and pelleted by low speed centrifugation at 1200 rpm for 10 minutes at 4° C. The cell pellet was resuspended in 25 mls 0.25 M sucrose, 10 mM Tris-HCl pH 7.5, 1 mM EDTA then homogenized with a Dounce homogenizer using a tight fitting pestle. The sample is centrifuged at 2300 rpm for 10 minutes at 4° C. This homogenization step was repeated.
The resulting pellets containing nuclei and large debris were discarded and the post-nuclear supernatants were combined. The supernatant fraction was centrifuged at 100,000×g for 30-60 minutes at 4° C. to collect membranes. The membranes were washed in buffer containing 0.2% saponin, 10 mM Tris-HCl pH 7.5, 1 mM EDTA to remove contaminating proteolytic activity, followed by centrifugation at 100,000×g for 30 minutes at 4° C. This step was repeated. Membranes at this stage can be used directly for assaying γ-secretase activity, or may be further treated to provide solubilized γ-secretase activity.
The saponin-washed membrane fraction was next solubilized with 0.5% CHAPS prepared in 10 mM Tris-HCl pH 7.5 with 5 mM EDTA. Aliquots of membranes containing γ-secretase activity were treated with detergent at 0° C. for 1 hour after which the treated samples were centrifuged at 100,000×g for 1 hour at 4° C. The resulting supernatants (soluble fractions) were assayed for Aβ production. 0.5% CHAPS was successful in solubilizing and preserving the γ-secretase activity.
To produce Aβ protein in vitro, an aliquot of the saponin-washed fraction or an aliquot of the 0.5% CHAPS treated soluble fraction was first adjusted to pH 7.0 by making a 1:10 dilution of the fraction with 1 M Tris-HCl pH 7.0 for a final concentration of 100mM Tris-HC1. The neutralized samples were incubated at 37° C. for various lengths of time, typically ranging from 0 (control) to 24 hours. After incubation, the samples were assayed for Aβ production as follows.
Wells of a 96-microtiter plate were coated overnight at 4° C. with 100 μl/well of a 4 μg/ml solution of purified monoclonal antibody 1702.1 diluted in phosphate buffered saline (PBS). The 1702.1 monoclonal antibody specifically recognizes the Aβ40 isoform. […] The plate is washed three times with PBS 0.05% Tween 20 and the amount of 1101.1 second antibody bound to the well is detected with HRP-conjugated Streptavidin (Zymed) using a tetramethylbenzidine substrate (Sigma). The resulting colormetric reaction is quantified by reading the plate at OD^450nm. The amount of Aβ40 present in the test sample is calculated from known amounts of synthetic Aβ40 peptide standard run in the ELISA. […]

| Molecule | enhancement of γ-secretase activity by other phospholipids, compared with cardiolipin | enhancement of γ-secretase activity (Aβ production) by added phospholipid (1 μM cardiolipin, FIG. 4) |
| --- | --- | --- |
| CCCCCCCCCCCCCCCC(=O)OC[C@H](COP(=O)([O-])OCC[N+](C)(C)C)OC(=O)CCCCCCCCCCCCCCC [1,2 dipalmitoyl-5-glycerol-3-phosphocholine] | comparable results | – |
| phosphotidylserine | comparable results | – |
| phosphotidylcholine | comparable results | – |
| cardiolipin | – | nearly equivalent to the activity originally present in the membranes prior to solubilization |
